Results published in US20250176602A1, “Composition for Proliferation of Bacteroides uniformis in the Intestinal Tract” (Asahi Group Holdings, Ltd., priority 2019, published 2025).

Assay: Suppression of increase in heart rate during exercise, Aerobike exercise loading test (Example 4)
Type: in vivo, human
Conditions: about 1000 mg/day
Experimental: As the test subjects, 86 healthy males at the ages of 20 to 49 who have exercise habits of conducting exercise with an intensity of 5 METs or more for 30 minutes or more once or twice a week and who can continue the exercise habits during the test period as well were selected.
Among the 86 test subjects, 43 test subjects were selected as an α-cyclodextrin (αCD) intake group, and the remaining 43 test subjects were selected as a placebo group. The test subjects themselves were not informed who belonged to which group.
Test Supplements (tablets) having compositions described in Table 4 below were used. One tablet of the test supplements was of about 600 mg.
Each test subject of the αCD intake group and the placebo group was asked to take in 4 tablets of the above test supplements once a day at any timing. That is, each test subject of the α-cyclodextrin intake group was asked to take in about 1000 mg of α-cyclodextrin per day.
The intake period for the test supplements was set to 8 weeks, and the heart rate during exercise was measured, before the start of the intake, after 4-week intake, and after 8-week intake to evaluate change in heart rate. In addition, a questionnaire on fatigue feeling was conducted before the start of the intake of the test supplements and after 8-week intake, and change in travel time was evaluated. […]

OC[C@H]1O[C@@H]2O[C@H]3[C@H](O)[C@@H](O)[C@@H](O[C@H]4[C@H](O)[C@@H](O)[C@@H](O[C@H]5[C@H](O)[C@@H](O)[C@@H](O[C@H]6[C@H](O)[C@@H](O)[C@@H](O[C@H]7[C@H](O)[C@@H](O)[C@@H](O[C@H]1[C@H](O)[C@H]2O)O[C@@H]7CO)O[C@@H]6CO)O[C@@H]5CO)O[C@@H]4CO)O[C@@H]3CO [α-cyclodextrin]
average heart rate for 10 minutes immediately before the end of exercise (Δ value vs before intake), compared with placebo group (after 4-week intake, tendency): lower | average heart rate for 10 minutes immediately before the end of exercise (Δ value vs before intake), compared with placebo group (after 8-week intake, p<0.05): significantly lower
